Measured values reported in US20120071513A1, “Compositions and Their Use as Anti-Tumor Agents” (COMPASS PHARMACEUTICALS LLC, priority 2004, published 2012).

How the values were obtained:
[1] = system: A2780 human ovarian adenocarcinoma xenografts; experiment: in vivo anti-tumor activity, A2780 xenografts; set-up: species or system mice; settings: 15 mg/kg, Day 19, positive control
Protocol: Body weights and tumor measurements were recorded three times weekly. Tumor burden (mg) was estimated from caliper measurements by the formula for the volume of a prolate ellipsoid assuming unit density as: Tumor burden (mg)=(L×W2)/2, where L and W are the respective orthogonal tumor length and width measurements (mm). The primary endpoints used to evaluate efficacy were study day 26 T/C values, complete and partial tumor responses, tumor growth delay, and the number of tumor-free survivors at the end of the study. T/C values were calculated by dividing the treated median tumor mass by the median control tumor mass and multiplying by 100. The USA National Cancer Institute (NCI) considers a compound which produces a % T/C value of 42 of less is active. Complete response (CR) is defined as a decrease in tumor mass to an undetectable size (<50 mg), and a partial response (PR) is defined as a ≧50% decrease in tumor mass from that at first treatment. […] Tumor Growth Delay (T-C) was also used to quantify efficacy. Tumor growth delay for this experiment was expressed as a T-C value, where T and C are the median times in days required for the treatment and control group tumors, respectively, to grow to a selected evaluation size, 750 mg. […]
Test animals were implanted subcutaneously on day 0 with 30 to 60 mg A2780 tumor fragments. […] Tumor mass on day 19 was analyzed by a single factor ANOVA. […]

[2] = system: A375 human melanoma xenografts; experiment: in vivo anti-tumor activity, A375 xenografts; set-up: species or system mice; settings: 30 mg/kg
Protocol: The in vivo anti-tumor activity of CP5017808 was evaluated against A375 human melanoma xenografts and ovarian carcinoma.
CP5017808 was dissolved with heat and sonication in a 1:1 mixture of absolute ethanol and CREMAPHOR™ equivalent to 20% of the final desired volume, and then brought to a final volume with 40% hydroxypropyl-β-cyclodextin in water. CP5017808 produced a fine suspension with a pH of 6.2.
Female NCr nu/nu mice (Charles River Laboratory) were used for the study. They were 5-6 weeks old on Day 1 of the experiment. The animals were fed Rodent Diet 5010 (LabDiet™) and water ad libitum. The mice were housed in Thoren™ microisolator caging with Bed-O'Cobs™ bedding. […]
Body weights and tumor measurements were recorded three times weekly. […] T/C values were calculated by dividing the treated median tumor mass by the median control tumor mass and multiplying by 100. […] Tumor Growth Delay (T-C) was also used to quantify efficacy. Tumor growth delay for this experiment was expressed as a T-C value, where T and C are the median times in days required for the treatment and control group tumors, respectively, to grow to a selected evaluation size, 750 mg.
The time for individual tumors to reach evaluation size, time to fold growth, and tumor volume doubling times were analyzed by a single factor ANOVA. […]

SMILES | % T/C value [1] | tumor growth delay ([2]; evaluation size 750 mg) | % T/C value ([2]; study day 26, positive control)
CC(=O)O[C@H]1C(=O)[C@@]2(C)[C@H]([C@H](OC(=O)c3ccccc3)[C@]3(O)C[C@H](OC(=O)[C@H](O)[C@@H](NC(=O)c4ccccc4)c4ccccc4)C(C)=C1C3(C)C)[C@]1(OC(C)=O)CO[C@@H]1C[C@@H]2O [Taxol®] | 15% | – | –
CC(=O)O[C@@]12CO[C@@H]1C[C@H](O)[C@@]1(C)C(=O)[C@H](O)C3=C(C)[C@@H](OC(=O)[C@H](O)[C@@H](NC(=O)OC(C)(C)C)c4ccccc4)C[C@@](O)([C@@H](OC(=O)c4ccccc4)[C@H]21)C3(C)C [docetaxel] | – | 10 days | 32%
